Measurements: article PMC11040934, “PI3Kγδ inhibition suppresses key disease features in a rat model of asthma” (Respiratory Research, 2024)
Like-named read-outs stand apart in the source and are kept apart here.

Assays:
[1] = test system: Brown Norway rats, OVA sensitised and challenged; assay: Rat model of allergic asthma: late asthmatic response (Penh, whole body plethysmography); format: in vivo, Brown Norway rat; conditions: 1-6 hrs after OVA challenge; i.t. dosing
Experimental: Male, adult, Brown Norway rats were obtained from Charles River Germany at a body weight range of 250-300 g. Animals were housed in temperature controlled individually ventilated cages in groups of 4 with food and water provided ad libitum. Animals underwent acclimatisation for at least 1 week prior to experimentation. Experiments were performed in accordance with the UK Home Office guidelines for animal welfare based on the Animals (Scientific Procedures) Act of 1986 and the ARRIVE guidelines (Fig. E2).
Initially a time course study was performed, followed by a characterisation study with compound & clinical comparator. For both studies, rats were sensitised on day 0, 14 and 21 by an intraperitoneal (i.p.) injection of 4 mL/kg (1 mL/rat) of ovalbumin (OVA;100 μg/rat) in Imject™ Alum (20 mg/rat aluminium hydroxide and 20 mg/rat magnesium hydroxide) or sham sensitised (Saline [Sal] in Imject™ Alum). […]
In both studies, 30 mins post-challenge, rats were placed unrestrained in Perspex plethysmographs connected to bias flow pumps (DSI Europe Ltd), with food and water ad libitum. 55 mins post-challenge, a five mins baseline recording was taken and the average penh and area under the curve (AUC) was recorded at 10 mins intervals for a total duration of 5 hrs and was used for analysis (DSI Europe Ltd).

[2] = Rat plasma protein binding, blood to plasma ratio, unbound fraction in whole blood; format: in vitro ADME; conditions: for fraction unbound: rat
Experimental: Next, cells were stained with Fc block (550,273, BD bioscience, 1:100; 20 mins, RT), CD45R-B220-PeCy7 (HIS24) (25–0460-82, eBioscience, 1:100), CD43-PE (W3/13) (202,812, Biolegend, 1:100), HIS48-FITC (11–0570-82, eBioscience, 1:100), CD11b-APC (562,102, BD Bioscience, 1:100). Cells were lysed and fixed with BD FACS lysing solution (349,202, BD Biosciences; 45 mins, RT) before FACS acquisition (BD LSRFortessa™). Data were analysed using FlowJo 9.9 software (TreeStar). FACS gating strategy: lymphocytes (FSC-A vs SSC-A), doublets exclusion (FSC-W vs FSC-H), neutrophil identification B220-, HIS48hi, CD43hi, SSC-Ahi, geom. MFI for CD11b on neutrophils. IC50 values were determined in Graph Pad through a nonlinear fit on log transform data: log inhibitor vs response, variable slope, 4 parameters. Fraction unbound in diluted whole blood is calculated using the following equation: fu^′=DF·fub/1+DF-1·fub where fu’ is the fraction unbound in diluted whole blood; fub is the fraction unbound in undiluted whole blood; DF is the dilution factor. Fraction unbound in 100% whole blood (fub) is calculated as fup/BP, where fup is the experimentally determined fraction unbound in undiluted plasma and BP is the experimentally determined blood to plasma partition ratio of drug Table 1.

Rat B/P ratio ([2]; blood to plasma partition ratio): 0.82
Rat fub ([2]; fraction unbound in 100% whole blood, fup/BP): 0.018
fraction unbound ([2]; diluted whole blood (PI3K γ assay), fraction unbound in diluted whole blood, DF 1.05 (γ assay), read-out: fu’): 0.0192
fraction unbound ([2]; plasma, rat plasma, fraction unbound, read-out: Rat ppb (fu, %)): 0.015
fraction unbound ([2]; plasma, undiluted rat plasma, fraction, read-out: Rat plasma fu): 0.015
SMILES: Cc1nc(Nc2cccc(N3CCCC3=O)n2)sc1-c1cc2c(c(S(C)(=O)=O)c1)C(=O)N([C@@H](C)C1CC1)C2 [AZD8154]
LAR (Penh, AUC) [1]: statistically significant dose-dependent decrease
